Experiments:
[1] = target: T1, SpGH92 (Streptococcus pneumoniae, UniProt A0A0H2US35); assay: UPLC-MS; assay type: biochemical; settings: 10 mM MOPS pH 7.0, 2 mM CaCl2, room temperature, 16 h, 0.6 μM substrate, 1 μM enzyme
T1 construct: gene SP_2145

[2] = target: T2, NgtS (Streptococcus pneumoniae, UniProt A0A0H2UMY0); assay: ITC; settings: 20 mM Tris, pH 8.0, 25 °C; 1:1 binding
T2 construct: gene SP_0092; residues 25-491, secretion signal peptide and lipobox removed, C-terminal six-histidine tag, expressed in E. coli BL21 Star (DE3)

[3] = target: T2, NgtS; assay: UV difference titration; settings: read-out: affinity constant; bimolecular binding model with ligand depletion
[4] = target: T1, SpGH92; assay: X-ray crystal structure, […] Å; assay type: binding; settings: crystal soaked with α-(1,2)-mannobiose; mannose in +1 subsite, Ca2+ and glycerol bound
[5] = target: the molecule itself; assay: crystal structure; crystals grown in 2.25 M (NH4)2SO4, 0.1 M Bis-Tris pH 5.5, soaked with α-(1,2)-mannobiose; four molecules in the asymmetric unit

T2 sequence (A0A0H2UMY0 25-491): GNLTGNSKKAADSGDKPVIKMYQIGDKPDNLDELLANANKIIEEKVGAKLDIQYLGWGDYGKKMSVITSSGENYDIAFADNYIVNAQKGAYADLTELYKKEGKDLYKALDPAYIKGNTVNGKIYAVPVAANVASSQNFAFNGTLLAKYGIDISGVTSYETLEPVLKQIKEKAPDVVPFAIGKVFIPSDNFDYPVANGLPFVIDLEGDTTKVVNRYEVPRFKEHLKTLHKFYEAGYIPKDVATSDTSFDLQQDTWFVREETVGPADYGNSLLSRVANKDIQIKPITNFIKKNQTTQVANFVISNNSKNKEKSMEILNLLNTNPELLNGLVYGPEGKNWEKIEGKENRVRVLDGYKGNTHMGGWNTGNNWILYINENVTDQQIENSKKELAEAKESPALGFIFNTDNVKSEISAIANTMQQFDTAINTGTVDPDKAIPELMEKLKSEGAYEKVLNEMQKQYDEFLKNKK

Molecule: CC(=O)N[C@H]1[C@H](O[C@H]2[C@H](O)[C@@H](NC(C)=O)C(O)O[C@@H]2CO)O[C@H](CO)[C@@H](O[C@@H]2O[C@H](CO[C@H]3O[C@H](CO[C@H]4O[C@H](CO)[C@@H](O)[C@H](O)[C@@H]4O[C@H]4O[C@H](CO)[C@@H](O)[C@H](O)[C@@H]4O)[C@@H](O)[C@H](O[C@H]4O[C@H](CO)[C@@H](O)[C@H](O)[C@@H]4O[C@H]4O[C@H](CO)[C@@H](O)[C@H](O)[C@@H]4O)[C@@H]3O)[C@@H](O)[C@H](O[C@H]3O[C@H](CO)[C@@H](O)[C@H](O)[C@@H]3O[C@H]3O[C@H](CO)[C@@H](O)[C@H](O)[C@@H]3O[C@H]3O[C@H](CO)[C@@H](O)[C@H](O)[C@@H]3O)[C@@H]2O)[C@@H]1O (some centres unmarked) [Man9GlcNAc2]
- UPLC-MS [1]: treatment of Man9GlcNAc2 with SpGH92 produced a glycan having a mass consistent with Man5GlcNAc2

Molecule: CC(=O)N[C@H]1C(O)O[C@H](CO)[C@@H](O[C@@H]2O[C@H](CO[C@H]3O[C@H](CO[C@H]4O[C@H](CO)[C@@H](O)[C@H](O)[C@@H]4O)[C@@H](O)[C@H](O[C@H]4O[C@H](CO)[C@@H](O)[C@H](O)[C@@H]4O)[C@@H]3O)[C@@H](O)[C@H](O[C@H]3O[C@H](CO)[C@@H](O)[C@H](O)[C@@H]3O)[C@@H]2O)[C@@H]1O (some centres unmarked) [Man5GlcNAc]
- Ka [2]: 1.04 (± 0.01)×10^6

Molecule: CC(=O)N[C@H]1C(O)O[C@H](CO)[C@@H](O[C@@H]2O[C@H](CO)[C@@H](O)[C@H](O)[C@@H]2O)[C@@H]1O (some centres unmarked) [Man1GlcNAc]
- Kd [3]: 83.3 µM

Molecule: OC[C@H]1OC(O)[C@@H](O)[C@@H](O)[C@@H]1O (some centres unmarked) [mannose]
- X-ray crystal structure, 2.15 Å [4]: electron density consistent with a single mannose residue, resulting from the hydrolysis

B1: SpGH92 (SP_2145), α-(1,2)-mannosidase from Streptococcus pneumoniae TIGR4 (enzyme)
chain: MKPLLETIDTRFGTTNKHAFSRGNTLPYTGVPFGMNYFVPQTSDQDGSWFFDPHLPIFQGIRLTHQPSPWIGDYSWLLLTPVTSQLGGDSLFHRQSSYDIDKACFQPHYLKLFSLRYQIETQLTPTCYGASIRLNQKQGKALSLYLHAADELTVEQVDKRTLALRQEGKTETNKNSLTMFTALQMNTDILAISQEAGDWRIDLASSQTEMQLATSFISPSQALINLPQEDFDSCKSSAQVDWENLLHRFDIIETGEADRTFFDHCLYRLFLFPQTFYEINESGQAIHMDLATGTVKPGVLFSNNGFWDTFRTTFPLFALIIPEHYQRFLEGFLNSYRDTGFLPKWLAPDERGMMPGTLLDGIIADSACKDMTPDLEGELFQAMLETASKADPLGINGRHGLAQYQELGYLSTDHHESVSHTLDYAYSDFCIASCAKKLENIEIAETYKAASQNYRQLFDAETGYMRARDNQGNFHPDFSPYSWGRDYAECSAIQATLGVLHDIPGLIQLMGGKETFSNYLLKACQDAPLFETTGYGYEIHEMSEMATAPFGQIAISNQPSFHIPYLFRYSDYPDYTALLIKTLRQKAFHPSWEAYPGDEDNGSLSAWYIWSALGFYPTCPGKPSYDLGIPLFDHLRVYLAKEDKWLDIHTKQNHNHFNFVKECRLDKTLVSTIQHQDLLKAEQLTFTLSWLPSH
notes: SpGH92, family 92 glycoside hydrolase, S. pneumoniae TIGR4 locus tag SP_2145, amino acids 1-694, cloned in pET28a between NheI and XhoI; Tetramer with D2 symmetry in the crystal and in solution; theoretical molecular weight of the tetramer 325.96 kDa; source: E. coli BL21 Star (DE3), autoinduction, purified (Ni-NTA)
- stoichiometry N [5]: 4

Source: PMC5215778, “Molecular Characterization of N-glycan Degradation and Transport in Streptococcus pneumoniae and Its Contribution to Virulence” (PLoS Pathogens, 2017)
